# From PubChem BioAssay (NCI)
#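 Protocol summary: plate cells (96-well), add compound at 5 concentrations, incubate 48 h, interpolate endpoints linearly. TGI: total growth inhibition.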
# Key:
# Assay in all cases: NCI anticancer screen, dose series, 48 h
# HT29 colon = system: HT29 colon
# UO-31 renal = system: UO-31 renal
# HOP-62 NSCLC = system: HOP-62 NSCLC
# U251 CNS = system: U251 CNS
# NCI-H522 lung = system: NCI-H522 lung
# CAKI-1 renal = system: CAKI-1 renal
# SW-620 colon = system: SW-620 colon
# SN12C renal = system: SN12C renal
# PC-3 prostate = system: PC-3 prostate
# HCT-116 colon = system: HCT-116 colon
# OVCAR-8 ovarian = system: OVCAR-8 ovarian
# A549 NSCLC = system: A549 NSCLC
# MALME-3M melanoma = system: MALME-3M melanoma
# OVCAR-5 ovarian = system: OVCAR-5 ovarian
# KM12 colon = system: KM12 colon
# MDA-MB-231 breast = system: MDA-MB-231 breast
# A498 renal = system: A498 renal
# MCF7 breast = system: MCF7 breast
# SR leukemia = system: SR leukemia
smiles,measurement,setting,value
CN1CCN(c2ccc3[nH]c(C4=C(O)c5nc(CO)n(C)c5C(=O)C4=O)nc3n2)CC1,TGI,HT29 colon,> 100 µM
same,TGI,UO-31 renal,> 100 µM
same,TGI,HOP-62 NSCLC,> 100 µM
same,TGI,U251 CNS,> 100 µM
same,TGI,NCI-H522 lung,> 100 µM
same,TGI,CAKI-1 renal,> 100 µM
same,TGI,SW-620 colon,> 100 µM
same,TGI,SN12C renal,> 100 µM
same,TGI,PC-3 prostate,> 100 µM
same,TGI,HCT-116 colon,> 100 µM
same,TGI,OVCAR-8 ovarian,> 100 µM
same,TGI,A549 NSCLC,> 100 µM
same,TGI,MALME-3M melanoma,> 100 µM
same,TGI,OVCAR-5 ovarian,> 100 µM
same,TGI,KM12 colon,> 100 µM
same,TGI,MDA-MB-231 breast,> 100 µM
C[C@@H]1OC(=O)C[C@H]2CC(=O)N(CCc3cn(S(=O)(=O)C(F)(F)F)c4ccccc34)C[C@@H]21,TGI,HT29 colon,> 100 µM
same,TGI,UO-31 renal,> 100 µM
same,TGI,HOP-62 NSCLC,> 100 µM
same,TGI,U251 CNS,> 100 µM
same,TGI,NCI-H522 lung,> 100 µM
same,TGI,CAKI-1 renal,> 100 µM
same,TGI,SW-620 colon,> 100 µM
same,TGI,PC-3 prostate,> 100 µM
same,TGI,HCT-116 colon,> 100 µM
same,TGI,OVCAR-8 ovarian,> 100 µM
same,TGI,A498 renal,> 100 µM
same,TGI,A549 NSCLC,> 100 µM
same,TGI,MALME-3M melanoma,> 100 µM
same,TGI,MCF7 breast,> 100 µM
same,TGI,OVCAR-5 ovarian,> 100 µM
same,TGI,KM12 colon,> 100 µM
same,TGI,MDA-MB-231 breast,> 100 µM
COC/C=C\[C@@]1(O)CCCC[C@@H]1CC(OC)OC,TGI,HT29 colon,> 100 µM
same,TGI,UO-31 renal,> 96.6 µM
same,TGI,HOP-62 NSCLC,> 100 µM
same,TGI,U251 CNS,> 100 µM
same,TGI,NCI-H522 lung,38.4 µM
same,TGI,CAKI-1 renal,> 100 µM
same,TGI,SW-620 colon,> 100 µM
same,TGI,SN12C renal,43.7 µM
same,TGI,PC-3 prostate,> 100 µM
same,TGI,HCT-116 colon,> 62.7 µM
same,TGI,SR leukemia,98.9 µM
same,TGI,OVCAR-8 ovarian,> 85.8 µM
same,TGI,A549 NSCLC,> 100 µM
same,TGI,MALME-3M melanoma,> 100 µM
same,TGI,OVCAR-5 ovarian,> 100 µM
same,TGI,KM12 colon,> 100 µM
same,TGI,MDA-MB-231 breast,> 100 µM
Nc1ccn(C2OC(COP(=O)(O)Oc3ccccc3)C(O)C2O)c(=O)n1 (stereo not given),TGI,HT29 colon,> 100 µM
same,TGI,UO-31 renal,> 100 µM
same,TGI,U251 CNS,> 100 µM
same,TGI,NCI-H522 lung,> 100 µM
same,TGI,CAKI-1 renal,> 100 µM
same,TGI,SW-620 colon,> 100 µM
same,TGI,SN12C renal,> 100 µM
same,TGI,HCT-116 colon,> 100 µM
same,TGI,OVCAR-8 ovarian,> 100 µM
same,TGI,A498 renal,> 100 µM
same,TGI,A549 NSCLC,> 100 µM
same,TGI,MALME-3M melanoma,> 100 µM
same,TGI,MCF7 breast,> 100 µM
same,TGI,OVCAR-5 ovarian,> 100 µM
same,TGI,KM12 colon,> 100 µM
N#Cc1c(-c2ccc(Cl)cc2)c(C#N)c(=O)n(NS(=O)(=O)c2ccccc2)c1-c1ccccc1,TGI,HOP-62 NSCLC,> 25 µM
same,TGI,U251 CNS,> 25 µM
same,TGI,CAKI-1 renal,> 25 µM
same,TGI,SW-620 colon,> 25 µM
same,TGI,SN12C renal,> 25 µM
same,TGI,PC-3 prostate,> 25 µM
same,TGI,HCT-116 colon,> 25 µM
same,TGI,A498 renal,> 25 µM
same,TGI,A549 NSCLC,> 25 µM
same,TGI,MCF7 breast,> 25 µM
same,TGI,OVCAR-5 ovarian,> 25 µM
same,TGI,MDA-MB-231 breast,> 25 µM
CC(=O)c1cn(-c2ccc(Cl)cc2)c(=O)c2c(N)n[nH]c12,TGI,HT29 colon,> 100 µM
same,TGI,UO-31 renal,> 100 µM
same,TGI,HOP-62 NSCLC,> 100 µM
same,TGI,U251 CNS,> 100 µM
same,TGI,CAKI-1 renal,> 100 µM
same,TGI,SW-620 colon,> 100 µM
same,TGI,PC-3 prostate,> 100 µM
same,TGI,HCT-116 colon,> 100 µM
same,TGI,SR leukemia,> 100 µM
same,TGI,OVCAR-8 ovarian,> 100 µM
same,TGI,A498 renal,> 100 µM
same,TGI,KM12 colon,> 100 µM
same,TGI,MDA-MB-231 breast,> 100 µM
COc1ccc(C)cc1NC(=S)N/N=C/c1ccc(SC)cc1,TGI,HT29 colon,> 100 µM
same,TGI,UO-31 renal,> 100 µM
same,TGI,HOP-62 NSCLC,> 100 µM
same,TGI,NCI-H522 lung,> 100 µM
same,TGI,CAKI-1 renal,> 100 µM
same,TGI,SW-620 colon,> 100 µM
same,TGI,SN12C renal,> 100 µM
same,TGI,PC-3 prostate,> 100 µM
same,TGI,HCT-116 colon,> 100 µM
same,TGI,SR leukemia,> 100 µM
same,TGI,OVCAR-8 ovarian,> 100 µM
same,TGI,A498 renal,> 100 µM
same,TGI,A549 NSCLC,> 100 µM
same,TGI,MALME-3M melanoma,> 100 µM
same,TGI,MCF7 breast,> 100 µM
same,TGI,OVCAR-5 ovarian,> 100 µM
same,TGI,KM12 colon,> 100 µM
CCOC(=O)CCC(NC(=O)OCc1ccccc1)C(=O)NC(CCC(=O)OCC)C(=O)NC(CCC(=O)OCC)C(=O)NC(CCC(=O)OCC)C(=O)NC(CCC(=O)OCC)C(=O)OCC (stereo not given),TGI,HT29 colon,> 100 µM
same,TGI,UO-31 renal,> 100 µM
same,TGI,HOP-62 NSCLC,> 100 µM
same,TGI,U251 CNS,> 100 µM
same,TGI,NCI-H522 lung,> 100 µM
same,TGI,CAKI-1 renal,> 100 µM
same,TGI,SW-620 colon,> 100 µM
same,TGI,SN12C renal,> 100 µM
same,TGI,PC-3 prostate,> 100 µM
same,TGI,HCT-116 colon,> 100 µM
same,TGI,SR leukemia,> 100 µM
same,TGI,OVCAR-8 ovarian,> 100 µM
same,TGI,A549 NSCLC,> 100 µM
same,TGI,MALME-3M melanoma,> 100 µM
same,TGI,MCF7 breast,> 100 µM
same,TGI,OVCAR-5 ovarian,> 100 µM
same,TGI,KM12 colon,> 100 µM
C/C(=N\Nc1ccc([N+](=O)[O-])cc1)C(=O)N(C)Nc1ccccc1,TGI,HT29 colon,> 100 µM
same,TGI,UO-31 renal,> 100 µM
same,TGI,HOP-62 NSCLC,> 100 µM
same,TGI,U251 CNS,> 100 µM
same,TGI,NCI-H522 lung,> 100 µM
same,TGI,SW-620 colon,> 100 µM
same,TGI,SN12C renal,> 100 µM
same,TGI,SR leukemia,> 100 µM
same,TGI,OVCAR-8 ovarian,> 100 µM
same,TGI,A498 renal,> 100 µM
same,TGI,A549 NSCLC,> 100 µM
same,TGI,KM12 colon,64.6 µM
CCOC(=O)c1c(SCCO)n(-c2ccccc2)c(=S)n(-c2ccccc2)c1=O,TGI,HT29 colon,> 100 µM
same,TGI,UO-31 renal,> 100 µM
same,TGI,HOP-62 NSCLC,> 100 µM
same,TGI,U251 CNS,> 100 µM
same,TGI,NCI-H522 lung,> 100 µM
same,TGI,CAKI-1 renal,> 100 µM
same,TGI,SW-620 colon,> 100 µM
same,TGI,SN12C renal,> 100 µM
same,TGI,PC-3 prostate,> 100 µM
same,TGI,HCT-116 colon,> 100 µM
same,TGI,SR leukemia,> 100 µM
same,TGI,OVCAR-8 ovarian,> 100 µM
same,TGI,A549 NSCLC,> 100 µM
same,TGI,MALME-3M melanoma,> 100 µM
same,TGI,MCF7 breast,> 100 µM
same,TGI,OVCAR-5 ovarian,> 100 µM
same,TGI,KM12 colon,> 100 µM
Nc1ncc(Cc2nc3ccccc3s2)s1,TGI,HT29 colon,> 100 µM
same,TGI,UO-31 renal,> 100 µM
same,TGI,HOP-62 NSCLC,> 100 µM
same,TGI,U251 CNS,> 100 µM
same,TGI,NCI-H522 lung,> 100 µM
same,TGI,CAKI-1 renal,> 100 µM
same,TGI,SW-620 colon,> 100 µM
same,TGI,SN12C renal,> 100 µM
same,TGI,PC-3 prostate,> 100 µM
same,TGI,HCT-116 colon,> 100 µM
same,TGI,OVCAR-8 ovarian,> 100 µM
same,TGI,A549 NSCLC,> 100 µM
same,TGI,MALME-3M melanoma,> 100 µM
same,TGI,MCF7 breast,> 100 µM
same,TGI,OVCAR-5 ovarian,> 100 µM
same,TGI,KM12 colon,> 100 µM
same,TGI,MDA-MB-231 breast,> 100 µM
CC(C)(C)/C(O)=C\c1nc2cc(C(F)(F)F)ccc2[nH]c1=O,TGI,HT29 colon,> 100 µM
same,TGI,UO-31 renal,> 100 µM
same,TGI,HOP-62 NSCLC,> 100 µM
same,TGI,U251 CNS,> 100 µM
same,TGI,NCI-H522 lung,> 100 µM
same,TGI,CAKI-1 renal,> 100 µM
same,TGI,SW-620 colon,> 100 µM
same,TGI,SN12C renal,> 100 µM
same,TGI,PC-3 prostate,> 100 µM
same,TGI,HCT-116 colon,> 100 µM
same,TGI,OVCAR-8 ovarian,> 100 µM
same,TGI,A498 renal,> 100 µM
same,TGI,A549 NSCLC,> 100 µM
same,TGI,MALME-3M melanoma,> 100 µM
same,TGI,OVCAR-5 ovarian,> 100 µM
same,TGI,KM12 colon,> 100 µM
same,TGI,MDA-MB-231 breast,> 100 µM
Cc1ccc2[nH]c3c(C)c4ccncc4c(C)c3c2c1,TGI,HT29 colon,2.58 µM
same,TGI,UO-31 renal,3.03 µM
same,TGI,HOP-62 NSCLC,3.24 µM
same,TGI,U251 CNS,2.46 µM
same,TGI,NCI-H522 lung,2.28 µM
same,TGI,CAKI-1 renal,1.85 µM
same,TGI,SW-620 colon,1.7 µM
same,TGI,SN12C renal,2.39 µM
same,TGI,HCT-116 colon,1.61 µM
same,TGI,SR leukemia,4.25 µM
same,TGI,OVCAR-8 ovarian,2.25 µM
same,TGI,A498 renal,2.91 µM
same,TGI,A549 NSCLC,2.63 µM
same,TGI,MALME-3M melanoma,4.16 µM
same,TGI,MCF7 breast,2.32 µM
same,TGI,OVCAR-5 ovarian,2.81 µM
same,TGI,KM12 colon,2.12 µM
COc1cc2c(c(OC)c1OC)C(=O)CC2N (stereo not given),TGI,HT29 colon,> 100 µM
same,TGI,UO-31 renal,> 100 µM
same,TGI,U251 CNS,> 100 µM
same,TGI,NCI-H522 lung,> 100 µM
same,TGI,CAKI-1 renal,> 100 µM
same,TGI,SW-620 colon,> 100 µM
same,TGI,PC-3 prostate,> 100 µM
same,TGI,HCT-116 colon,> 100 µM
same,TGI,OVCAR-8 ovarian,> 100 µM
same,TGI,A498 renal,> 100 µM
same,TGI,A549 NSCLC,> 100 µM
same,TGI,MALME-3M melanoma,> 100 µM
same,TGI,MCF7 breast,> 100 µM
same,TGI,OVCAR-5 ovarian,> 100 µM
same,TGI,KM12 colon,> 100 µM
same,TGI,MDA-MB-231 breast,> 100 µM
